Experimental data from patent publication US12516056B2, “Compounds for inhibition of janus kinase 1” (MANKIND PHARMA LTD., priority 2019, dated 2026).
Like-named read-outs stand apart in the source and are kept apart here. Each block holds one molecule with its values, some of them ahead of it.

Legend:
[1] = target: T1, Recombinant JAK1 (Homo sapiens, UniProt P23458); assay: JAK biochemical assay (LANCE Ultra TR-FRET), JAK1; conditions: recombinant JAK1, TR-FRET; read-out: Biochemical Assay (μM) JAK1
T1 construct: purchased Carna Biosciences
How it was run: (§1)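 TR-FRET read-out of ULight substrate phosphorylation by recombinant kinase gives % inhibition relative to vehicle. The assay buffer is HEPES pH 7.5 with EGTA, MgCl2, DTT and Tween-20.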

[2] = target: T2, Recombinant JAK2 (Homo sapiens, UniProt O60674); assay: JAK biochemical assay (LANCE Ultra TR-FRET), JAK2; conditions: recombinant JAK2, TR-FRET; read-out: Biochemical Assay (μM) JAK2
T2 construct: purchased Carna Biosciences
How it was run: as §1

[3] = target: T3, Recombinant JAK3 (Homo sapiens, UniProt P52333); assay: JAK biochemical assay (LANCE Ultra TR-FRET), JAK3; conditions: recombinant JAK3, TR-FRET; read-out: Biochemical Assay (μM) JAK3
T3 construct: purchased Carna Biosciences
T3 sequence (P52333 1-1124): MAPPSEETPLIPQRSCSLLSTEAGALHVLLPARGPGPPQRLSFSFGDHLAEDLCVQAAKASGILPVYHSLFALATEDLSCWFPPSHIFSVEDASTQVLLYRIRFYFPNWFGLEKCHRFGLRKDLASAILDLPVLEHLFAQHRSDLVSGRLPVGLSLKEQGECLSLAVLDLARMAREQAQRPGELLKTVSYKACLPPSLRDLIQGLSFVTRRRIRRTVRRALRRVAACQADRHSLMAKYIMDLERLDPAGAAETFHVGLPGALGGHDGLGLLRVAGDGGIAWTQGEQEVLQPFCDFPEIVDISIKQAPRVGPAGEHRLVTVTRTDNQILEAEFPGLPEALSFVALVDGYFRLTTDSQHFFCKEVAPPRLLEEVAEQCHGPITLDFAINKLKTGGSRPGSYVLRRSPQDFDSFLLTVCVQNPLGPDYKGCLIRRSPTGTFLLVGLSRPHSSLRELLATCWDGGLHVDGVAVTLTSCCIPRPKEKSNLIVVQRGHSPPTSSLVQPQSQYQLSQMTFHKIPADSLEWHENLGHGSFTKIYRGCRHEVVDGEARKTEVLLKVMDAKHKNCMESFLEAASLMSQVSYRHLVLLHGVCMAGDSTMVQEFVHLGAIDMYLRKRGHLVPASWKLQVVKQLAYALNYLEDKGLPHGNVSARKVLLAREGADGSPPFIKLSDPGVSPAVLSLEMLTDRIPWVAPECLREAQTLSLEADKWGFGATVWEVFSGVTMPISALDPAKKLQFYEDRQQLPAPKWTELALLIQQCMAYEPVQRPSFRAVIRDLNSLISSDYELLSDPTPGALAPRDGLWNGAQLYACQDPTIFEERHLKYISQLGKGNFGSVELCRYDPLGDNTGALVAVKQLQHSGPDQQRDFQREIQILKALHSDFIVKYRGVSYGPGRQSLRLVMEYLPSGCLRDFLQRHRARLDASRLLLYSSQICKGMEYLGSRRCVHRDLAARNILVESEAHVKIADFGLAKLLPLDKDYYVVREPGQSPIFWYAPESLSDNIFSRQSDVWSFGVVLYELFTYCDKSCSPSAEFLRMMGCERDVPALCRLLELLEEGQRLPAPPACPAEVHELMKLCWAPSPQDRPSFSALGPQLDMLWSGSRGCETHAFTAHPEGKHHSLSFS
How it was run: as §1

[4] = target: T4, Recombinant TYK2 (Homo sapiens, UniProt P29597); assay: JAK biochemical assay (LANCE Ultra TR-FRET), TYK2; conditions: recombinant TYK2, TR-FRET; read-out: Biochemical Assay (μM) TYK2
T4 construct: purchased Carna Biosciences
How it was run: as §1

[5] = tested on: STAT3 phosphorylation by IL-6 in TF-1 cells; assay: JAK cellular assay: STAT3 phosphorylation by IL-6 in TF-1 cells (HTRF); assay type: cell-based; conditions: IL-6 30 ng/ml, pSTAT3 HTRF, read-out: Cell Based Assay (μM) TF-1/IL-6/pSTAT3
Protocol: (§2) TF-1 cells were starved overnight in OptiMEM medium with 0.5% charcoal stripped fetal bovine serum, 0.1 mM nonessential amino acids (NEAA), 1 mM sodium pyruvate and without phenol red in CO2 incubator maintained at 37° c. Next day, cells were resuspended in RPMI without phenol red and dispensed into a 96 well plate at a final cell density of 1,20,000 cells per well. Compounds were diluted in DMSO and added to cells and incubated for 30 minutes in CO2 incubator maintained at 37° c. Final DMSO concentration in cell based assay was 0.2%. Human recombinant cytokines, IL-6 (30 ng/ml) and GMCSF (5 ng/ml) were added to the plate containing cells along with compound and incubated for 20 minutes with gentle tapping at every 5 minutes once. Compound mediated effects on STAT3 and STAT5 phosphorylation was measured in the lysates prepared by using CISBIO pSTAT3 and pSTAT5 detection kits by HTRF method. Background signal obtained from cells which were not activated with cytokines, was subtracted from vehicle controls and compound treated wells.

[6] = tested on: STAT5 phosphorylation by GMCSF in TF-1 cells; assay: JAK cellular assay: STAT5 phosphorylation by GMCSF in TF-1 cells (HTRF); assay type: cell-based; conditions: TF-1 cells, GMCSF 5 ng/ml, pSTAT5 HTRF, read-out: Cell Based Assay (μM) TF-1/GMCSF/pSTAT5
Protocol: as §2

T2 sequence (O60674 whole entry): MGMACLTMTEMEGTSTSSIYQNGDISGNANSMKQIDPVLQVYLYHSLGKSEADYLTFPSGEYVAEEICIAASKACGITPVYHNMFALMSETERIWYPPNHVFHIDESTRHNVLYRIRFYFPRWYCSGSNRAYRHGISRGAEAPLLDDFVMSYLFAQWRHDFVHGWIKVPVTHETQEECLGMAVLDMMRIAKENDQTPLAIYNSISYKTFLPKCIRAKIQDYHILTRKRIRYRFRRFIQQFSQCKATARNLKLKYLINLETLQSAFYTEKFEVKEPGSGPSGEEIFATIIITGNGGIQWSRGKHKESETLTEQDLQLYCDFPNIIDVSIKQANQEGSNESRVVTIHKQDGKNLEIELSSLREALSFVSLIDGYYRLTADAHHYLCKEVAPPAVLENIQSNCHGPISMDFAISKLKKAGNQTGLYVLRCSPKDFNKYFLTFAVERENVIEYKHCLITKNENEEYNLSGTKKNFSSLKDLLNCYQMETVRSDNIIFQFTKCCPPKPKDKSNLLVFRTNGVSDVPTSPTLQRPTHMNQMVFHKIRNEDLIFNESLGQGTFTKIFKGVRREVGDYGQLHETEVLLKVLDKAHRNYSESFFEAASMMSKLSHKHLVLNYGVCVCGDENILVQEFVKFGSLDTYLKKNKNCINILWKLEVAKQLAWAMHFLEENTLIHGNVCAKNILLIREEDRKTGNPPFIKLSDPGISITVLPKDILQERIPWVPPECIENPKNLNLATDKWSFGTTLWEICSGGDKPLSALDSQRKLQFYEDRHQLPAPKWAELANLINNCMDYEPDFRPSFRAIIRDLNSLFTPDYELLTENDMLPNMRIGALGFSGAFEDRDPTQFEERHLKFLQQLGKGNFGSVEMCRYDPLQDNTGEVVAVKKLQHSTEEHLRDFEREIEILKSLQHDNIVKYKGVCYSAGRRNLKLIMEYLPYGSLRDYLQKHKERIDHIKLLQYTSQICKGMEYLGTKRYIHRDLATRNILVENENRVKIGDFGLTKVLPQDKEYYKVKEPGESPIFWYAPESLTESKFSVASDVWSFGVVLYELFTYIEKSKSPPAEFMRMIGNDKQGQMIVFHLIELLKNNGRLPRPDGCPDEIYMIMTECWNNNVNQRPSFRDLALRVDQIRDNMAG
T1 sequence (P23458 whole entry): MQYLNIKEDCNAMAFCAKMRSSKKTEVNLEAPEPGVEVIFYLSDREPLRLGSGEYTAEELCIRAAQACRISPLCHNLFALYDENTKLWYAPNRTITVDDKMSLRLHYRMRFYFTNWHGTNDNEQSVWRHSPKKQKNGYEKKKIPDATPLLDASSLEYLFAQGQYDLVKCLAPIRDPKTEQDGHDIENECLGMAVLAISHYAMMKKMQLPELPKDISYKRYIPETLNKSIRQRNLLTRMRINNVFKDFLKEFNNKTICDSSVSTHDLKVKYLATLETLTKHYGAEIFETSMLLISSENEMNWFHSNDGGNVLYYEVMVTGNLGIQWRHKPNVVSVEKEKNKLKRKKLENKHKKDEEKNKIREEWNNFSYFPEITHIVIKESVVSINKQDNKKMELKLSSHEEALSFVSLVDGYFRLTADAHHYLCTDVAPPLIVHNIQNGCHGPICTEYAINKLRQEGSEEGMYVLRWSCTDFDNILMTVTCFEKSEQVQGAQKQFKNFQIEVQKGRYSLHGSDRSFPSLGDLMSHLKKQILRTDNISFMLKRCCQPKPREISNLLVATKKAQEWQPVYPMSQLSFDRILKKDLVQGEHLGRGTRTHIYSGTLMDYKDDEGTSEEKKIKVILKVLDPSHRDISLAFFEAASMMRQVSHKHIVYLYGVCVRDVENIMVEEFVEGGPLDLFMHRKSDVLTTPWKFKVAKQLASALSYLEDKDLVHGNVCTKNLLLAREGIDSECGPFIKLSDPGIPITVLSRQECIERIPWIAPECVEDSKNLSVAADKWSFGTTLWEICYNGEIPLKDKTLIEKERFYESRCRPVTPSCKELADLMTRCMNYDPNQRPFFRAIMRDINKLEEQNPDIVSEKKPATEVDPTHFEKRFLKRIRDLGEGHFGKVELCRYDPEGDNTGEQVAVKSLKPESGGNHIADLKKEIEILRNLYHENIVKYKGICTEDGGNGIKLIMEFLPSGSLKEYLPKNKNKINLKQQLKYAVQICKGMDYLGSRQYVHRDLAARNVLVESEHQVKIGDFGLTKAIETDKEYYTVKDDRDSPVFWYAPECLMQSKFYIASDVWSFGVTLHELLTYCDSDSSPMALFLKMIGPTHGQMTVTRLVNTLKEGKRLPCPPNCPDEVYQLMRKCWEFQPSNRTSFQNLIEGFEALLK
T4 sequence (P29597 whole entry): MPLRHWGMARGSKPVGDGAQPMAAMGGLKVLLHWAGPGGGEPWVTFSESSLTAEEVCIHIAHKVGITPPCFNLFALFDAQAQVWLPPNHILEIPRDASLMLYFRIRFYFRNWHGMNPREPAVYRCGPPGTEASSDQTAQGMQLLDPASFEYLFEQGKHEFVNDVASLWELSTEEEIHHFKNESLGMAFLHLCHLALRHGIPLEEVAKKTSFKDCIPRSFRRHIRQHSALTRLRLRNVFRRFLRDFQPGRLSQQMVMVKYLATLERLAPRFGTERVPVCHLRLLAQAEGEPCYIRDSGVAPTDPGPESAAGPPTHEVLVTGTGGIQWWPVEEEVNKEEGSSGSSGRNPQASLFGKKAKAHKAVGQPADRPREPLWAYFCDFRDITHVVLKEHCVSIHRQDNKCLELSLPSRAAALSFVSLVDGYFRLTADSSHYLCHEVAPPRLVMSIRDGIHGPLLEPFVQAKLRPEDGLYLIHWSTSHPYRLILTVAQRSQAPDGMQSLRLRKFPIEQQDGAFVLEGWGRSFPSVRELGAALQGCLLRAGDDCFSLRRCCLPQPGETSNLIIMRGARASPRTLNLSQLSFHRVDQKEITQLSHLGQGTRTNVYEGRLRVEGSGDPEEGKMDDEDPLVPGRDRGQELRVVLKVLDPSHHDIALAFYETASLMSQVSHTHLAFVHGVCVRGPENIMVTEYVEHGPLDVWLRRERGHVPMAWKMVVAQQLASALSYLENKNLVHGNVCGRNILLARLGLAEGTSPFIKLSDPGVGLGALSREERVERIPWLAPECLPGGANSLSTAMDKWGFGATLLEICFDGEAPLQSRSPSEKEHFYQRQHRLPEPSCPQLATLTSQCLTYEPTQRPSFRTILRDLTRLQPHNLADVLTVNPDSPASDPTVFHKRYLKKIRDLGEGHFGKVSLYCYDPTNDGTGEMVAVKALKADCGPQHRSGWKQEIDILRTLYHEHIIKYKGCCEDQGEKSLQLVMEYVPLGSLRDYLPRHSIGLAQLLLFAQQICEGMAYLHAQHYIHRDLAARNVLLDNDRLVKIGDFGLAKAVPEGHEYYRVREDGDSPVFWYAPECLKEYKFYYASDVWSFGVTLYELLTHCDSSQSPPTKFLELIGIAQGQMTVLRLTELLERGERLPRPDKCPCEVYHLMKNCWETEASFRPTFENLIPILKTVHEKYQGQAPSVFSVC

SMILES: c1cc(-c2cnn(-c3ccc(CC4COC4)cn3)c2)c2nc[nH]c2n1 [Example 1081, 7-(1-(5-((oxetan-3-yl)methyl)pyridin-2-yl)-1H-pyrazol-4-yl)-3H-imidazo[4,5-b]pyridine]
- IC50 [1]: < 0.5 µM
- IC50 [2]: > 0.5 µM
- IC50 [3]: < 0.5 µM
- IC50 [4]: > 10 µM
- IC50 ([5]; Homo sapiens, TF-1, TF-1 cells): > 1 µM
- IC50 ([6]; Homo sapiens): > 10 µM

SMILES: CC(CC#N)NC(=O)n1cc(-c2ccnc3[nH]c(=O)[nH]c23)cn1 (stereo not shown) [Example 1052, N-(1-cyanopropan-2-yl)-4-(2,3-dihydro-2-oxo-1H-imidazo[4,5-b]pyridin-7-yl)-1H-pyrazole-1-carboxamide]
- IC50 [1]: < 0.5 µM
- IC50 [2]: < 0.5 µM
- IC50 [3]: > 0.5 µM
- IC50 [4]: < 0.5 µM
- IC50 ([5]; TF-1 cells): > 10 µM
- IC50 [6]: > 10 µM

SMILES: N#CC1CC(NC(=O)n2cc(-c3ccnc4[nH]c(=O)[nH]c34)cn2)C1 (stereo not shown) [Example 1056, N-(3-cyanocyclobutyl)-4-(2,3-dihydro-2-oxo-1H-imidazo[4,5-b]pyridin-7-yl)-1H-Pyrazole-1-carboxamide]
- IC50 [1]: < 0.5 µM
- IC50 [2]: < 0.5 µM
- IC50 [3]: < 0.5 µM
- IC50 [4]: > 0.5 µM
- IC50 ([5]; Homo sapiens, TF-1, TF-1 cells): > 10 µM
- IC50 ([6]; Homo sapiens): > 10 µM

SMILES: c1cc(-c2cnn(Cc3cnco3)c2)c2nc[nH]c2n1 [Example 1077, 7-(1-((oxazol-5-yl)methyl)-1H-pyrazol-4-yl)-3H-imidazo[4,5-b]pyridine]
- IC50 [1]: > 1 µM
- IC50 [2]: > 1 µM
- IC50 [3]: > 1 µM
- IC50 [4]: > 10 µM
- IC50 ([5]; Homo sapiens, TF-1, TF-1 cells): > 10 µM
- IC50 ([6]; Homo sapiens): > 10 µM

SMILES: CC(CN1CC(C#N)C1)NC(=O)n1cc(-c2ccnc3[nH]cnc23)cn1 (stereo not shown) [Example 1068, N-(1-(3-cyanoazetidin-1-yl)propan-2-yl)-4-(3H-imidazo[4,5-b]pyridin-7-yl)-1H-pyrazole-1-carboxamide]
- IC50 [1]: > 1 µM
- IC50 [2]: > 1 µM
- IC50 [3]: > 1 µM
- IC50 [4]: > 1 µM
- IC50 ([5]; Homo sapiens, TF-1, TF-1 cells): > 10 µM
- IC50 ([6]; Homo sapiens): > 10 µM

SMILES: CC(C)[C@H](C#N)NC(=O)n1cc(-c2ccnc3[nH]c(=O)[nH]c23)cn1 [Example 1049, N-((R)-1-cyano-2-methylpropyl)-4-(2,3-dihydro-2-oxo-1H-imidazo[4,5-b]pyridin-7-yl)-1H-pyrazole-1-carboxamide]
- IC50 [1]: < 0.5 µM
- IC50 [2]: < 0.5 µM
- IC50 [3]: < 0.5 µM
- IC50 [4]: < 0.5 µM
- IC50 ([5]; Homo sapiens, TF-1, TF-1 cells): < 10 µM
- IC50 ([6]; Homo sapiens): > 10 µM

SMILES: N#CC(c1ccc(-n2cc(-c3ccnc4[nH]cnc34)cn2)nc1)N1CCOCC1 (stereo not shown) [Example 1112, 2-(6-(4-(3H-imidazo[4,5-b]pyridin-7-yl)-1H-pyrazol-1-yl)pyridin-3-yl)-2-morpholinoacetonitrile]
- IC50 [2]: > 0.5 µM
- IC50 [3]: > 1 µM
- IC50 [4]: > 1 µM
- IC50 ([5]; Homo sapiens, TF-1, TF-1 cells): 10 µM
- IC50 ([6]; Homo sapiens): > 10 µM

SMILES: CC(CC#N)NC(=O)n1cc(-c2ccnc3[nH]c(=O)[nH]c23)cn1 (stereo not shown) [Example 1053, N-(1-cyanopropan-2-yl)-4-(2,3-dihydro-2-oxo-1H-imidazo[4,5-b]pyridin-7-yl)-1H-pyrazole-1-carboxamide]
- IC50 [1]: < 1 µM
- IC50 [2]: < 1 µM
- IC50 [4]: > 1 µM
- IC50 ([5]; TF-1 cells): > 10 µM
- IC50 [6]: > 10 µM

SMILES: CS(=O)(=O)CCC(C#N)NC(=O)n1cc(-c2ccnc3[nH]cnc23)cn1 (stereo not shown) [Example 1072, N-(1-cyano-3-(methylsulfonyl)propyl)-4-(3H-imidazo[4,5-b]pyridin-7-yl)-1H-pyrazole-1-carboxamide]
- IC50 [1]: > 0.5 µM
- IC50 [2]: > 0.5 µM
- IC50 [3]: > 0.5 µM
- IC50 ([5]; Homo sapiens, TF-1, TF-1 cells): > 10 µM
- IC50 ([6]; Homo sapiens): > 10 µM

SMILES: N#CCCC1CCN(C(=O)n2cc(-c3ccnc4[nH]c(=O)[nH]c34)cn2)C1 (stereo not shown) [Example 1061, 3-(1-(4-(2-oxo-2,3-dihydro-1H-imidazo[4,5-b]pyridin-7-yl)-1H-pyrazole-1-carbonyl)pyrrolidin-3-yl)propanenitrile]
- IC50 [1]: > 1 µM
- IC50 [3]: > 1 µM
- IC50 [4]: > 1 µM
- IC50 ([5]; Homo sapiens, TF-1, TF-1 cells): > 10 µM
- IC50 ([6]; Homo sapiens): > 10 µM

Now from value to molecule:

- IC50 [1]: < 0.1 µM
- IC50 [3]: < 0.1 µM
- IC50 [4]: > 1 µM
- IC50 ([5]; Homo sapiens, TF-1, TF-1 cells): > 1 µM
- IC50 ([6]; Homo sapiens): > 10 µM
SMILES: OC(c1ccc(-n2cc(-c3ccnc4[nH]cnc34)cn2)nc1)(C1CCOCC1)C(F)(F)F (stereo not shown) [Example 1134, 1-(6-(4-(3H-imidazo[4,5-b]pyridin-7-yl)-1H-pyrazol-1-yl)pyridin-3-yl)-2,2,2-trifluoro-1-(tetrahydro-2H-pyran-4-yl)ethanol]

- IC50 [1]: 0.03 µM
- IC50 [2]: 0.031 µM
- IC50 [3]: 0.123 µM
- IC50 [4]: 0.053 µM
- IC50 ([5]; Homo sapiens, TF-1, TF-1 cells): 4.7 µM
- IC50 ([6]; Homo sapiens): > 10 µM
SMILES: N#CC(NC(=O)n1cc(-c2ccnc3[nH]c(=O)[nH]c23)cn1)C1CC1 (stereo not shown) [Example 1043, N-(cyano(cyclopropyl)methyl)-4-(2,3-dihydro-2-oxo-1H-imidazo[4,5-b]pyridin-7-yl)-1H-pyrazole-1-carboxamide]

- IC50 [1]: < 0.1 µM
- IC50 [2]: > 0.1 µM
- IC50 [3]: < 0.1 µM
- IC50 [4]: > 0.5 µM
- IC50 ([5]; Homo sapiens, TF-1, TF-1 cells): > 0.5 µM
- IC50 ([6]; Homo sapiens): > 1 µM
SMILES: N#CC1CN(CCC(c2ccc(-n3cc(-c4ccnc5[nH]cnc45)cn3)nc2)C(F)(F)F)C1 (stereo not shown) [Example 1202, 1-(3-(6-(4-(3H-imidazo[4,5-b]pyridin-7-yl)-1H-pyrazol-1-yl)pyridin-3-yl)-4,4,4-trifluorobutyl)azetidine-3-carbonitrile]

- IC50 [1]: 0.006 µM
- IC50 [2]: 0.056 µM
- IC50 [3]: 0.023 µM
- IC50 [4]: 0.06 µM
- IC50 ([5]; Homo sapiens, TF-1, TF-1 cells): 0.05 µM
- IC50 ([6]; Homo sapiens): 0.26 µM
SMILES: CCN1CC(C(O)(c2ccc(-n3cc(-c4ccnc5[nH]cnc45)cn3)nc2)C(F)(F)F)C1 (stereo not shown) [Example 1239, 1-(6-(4-(3H-imidazo[4,5-b]pyridin-7-yl)-1H-pyrazol-1-yl)pyridin-3-yl)-1-(1-ethylazetidin-3-yl)-2,2,2-trifluoroethanol]

- IC50 [1]: < 0.1 µM
- IC50 [2]: < 0.1 µM
- IC50 [3]: < 0.1 µM
- IC50 [4]: < 0.1 µM
- IC50 ([5]; Homo sapiens, TF-1, TF-1 cells): > 1 µM
- IC50 ([6]; Homo sapiens): > 10 µM
SMILES: OC(c1ccc(-n2cc(-c3ccnc4[nH]cnc34)cn2)nc1)(C1CCNCC1)C(F)(F)F (stereo not shown) [Example 1135, 1-(6-(4-(3H-imidazo[4,5-b]pyridin-7-yl)-1H-pyrazol-1-yl)pyridin-3-yl)-2,2,2-trifluoro-1-(piperidin-4-yl)ethan-1-ol]

- IC50 [1]: < 0.1 µM
- IC50 [2]: < 0.1 µM
- IC50 [3]: < 0.1 µM
- IC50 [4]: > 0.5 µM
- IC50 ([5]; Homo sapiens, TF-1, TF-1 cells): > 0.75 µM
- IC50 ([6]; Homo sapiens): > 1 µM
SMILES: CN1CCN(CCC(c2ccc(-n3cc(-c4ccnc5[nH]cnc45)cn3)nc2)C(F)(F)F)CC1 (stereo not shown) [Example 1219, 7-(1-(5-(1,1,1-trifluoro-4-(4-methylpiperazin-1-yl)butan-2-yl)pyridin-2-yl)-1H-pyrazol-4-yl)-3H-imidazo[4,5-b]pyridine]
